Source: patent US11414424B2, “Cardiac sarcomere inhibitors” (Cytokinetics, Inc., priority 2018, dated 2022)

Tested on: bovine cardiac myofibrils
Test: Myofibril assay: PK/LDH-coupled steady-state ATPase activity of skinned bovine cardiac myofibrils
Type: biochemical
Conditions: Ca2+ activating to 75% of maximal rate
Summary of the method: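 Steady-state ATPase of detergent-skinned bovine left-ventricular myofibrils (1 mg/mL), PK/LDH-coupled NADH read at 340 nm, in PIPES/MgCl2 buffer pH 6.8 with 50 μM ATP, 0.6 mM EGTA and CaCl2 set for 50% or 75% activation. Inhibition of activity measured.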

CDMF75 IC15 [µM] | SMILES
1.3 | O=C1[C@H](C2CC2)N(Cc2ccc(F)cc2)C(=O)CN1c1ncc(Cl)cc1F [Compound 751, (S)-1-(5-chloro-3-fluoro-pyridin-2-yl)-3-cyclo-propyl-4-(4-fluorobenzyl)-piperazine-2,5-dione]
2.2 | CC1(C)C(=O)N(c2ncc(Cl)cc2F)CC(=O)N1Cc1ccc(Cl)cc1 [Compound 576, 1-(5-chloro-3-fluoropyridin-2-yl)-4-(4-chlorobenzyl)-3,3-dimethylpiperazine-2,5-dione]
2.3 | CC(C)C(=O)N1CC[C@]2(C1)C(=O)N(c1ccc(C#N)cc1F)CC(=O)N2Cc1ccc(C(F)(F)F)cc1 [Compound 223, (S)-3-fluoro-4-(2-isobutyryl-7,10-dioxo-6-(4-(trifluoromethyl)benzyl)-2,6,9-triazaspiro[4.5]decan-9-yl)benzonitrile]
>39 | NC(=O)C12CC([C@@H]3C(=O)N(c4ncc(Cl)cc4F)CC(=O)N3Cc3ccc(C(F)F)cc3)(C1)C2 [Compound 822, (R)-3-(4-(5-chioro-3-fluoropyridin-2-yl)-3,6-dioxo-1-(4-(difluoro-methyl)benzyl)piperazin-2-yl)bicyclo[1.1.1]pentane-1-carboxamide]
3.0 | CC1(C2C(=O)N(c3ncc(Cl)cc3F)CC(=O)N2Cc2ccc(C(F)(F)F)cc2)COC1 (stereo not drawn) [Compound 623, 1-(5-chloro-3-fluoropyridin-2-yl)-3-(3-methyloxetan-3-yl)-4-(4-(trifluoro-methyl)-benzyl)piperazine-2,5-dione]
14.3 | CC(C)N1CC(=O)N(Cc2ccc(Cl)cc2)C(C)(c2ccc(Cl)cc2)C1=O (stereo not drawn) [Compound 316, 4-(4-chlorobenzyl)-3-(4-chlorophenyl)-1-isopropyl-3-methylpiperazine-2,5-dione]
13.6 | CS(=O)(=O)CCC1C(=O)N(c2ncc(Cl)cc2F)CC(=O)N1Cc1ccc(C(F)(F)F)cc1 (stereo not drawn) [Compound 612, 1-(5-chloro-3-fluoropyridin-2-yl)-3-(2-(methylsulfonyl)-ethyl)-4-(4-(trifluoro-methyl)benzyl)piperazine-2,5-dione]
12.1 | CC(=O)N1CC[C@]2(C1)C(=O)N(c1ccc(OC(F)F)cc1)CC(=O)N2Cc1ccc(Cl)cc1 [Compound 224, (S)-2-acetyl-6-(4-chloro-benzyl)-9-(4-(difluoro-methoxy)phenyl)-2,6,9-triazaspiro[4.5]decane-7,10-dione]
5.8 | Cc1cc(Cl)cnc1N1CC(=O)N(Cc2ccc(C(F)(F)F)cc2)C(C2COC2)C1=O (stereo not drawn) [Compound 645, 1-(5-chloro-3-methylpyridin-2-yl)-3-(oxetan-3-yl)-4-(4-(trifluoromethyl)benzyl)-piperazine-2,5-dione]
12.4 | Cc1cc(Cl)cnc1N1CC(=O)N(Cc2ccc(F)cc2)C(C2COC2)C1=O (stereo not drawn) [Compound 714, 1-(5-chloro-3-methylpyridin-2-yl)-4-(4-fluorobenzyl)-3-(oxetan-3-yl)piperazine-2,5-dione]
27.9 | O=C1C(C2CCS(=O)(=O)CC2)N(Cc2ccc(C(F)(F)F)cc2)C(=O)CN1c1ncc(Cl)cc1F (stereo not drawn) [Compound 689, 1-(5-chloro-3-fluoropyridin-2-yl)-3-(1,1-dioxidotetra-hydro-2H-thiopyran-4-yl)-4-(4-(trifluoromethyl)-benzyl)piperazine-2,5-dione]
3.3 | O=C1C(C2COC2)N(Cc2ccc(F)cc2)C(=O)CN1c1ncc(Cl)cc1F (stereo not drawn) [Compound 646, 1-(5-chloro-3-fluoropyridin-2-yl)-4-(4-fluorobenzyl)-3-(oxetan-3-yl)piperazine-2,5-dione]
1.3 | O=C1C(C2COC2)N(Cc2ccc(Cl)cc2)C(=O)CN1c1ncc(Cl)cc1F (stereo not drawn) [Compound 633, 1-(5-chloro-3-fluoropyridin-2-yl)-4-(4-chlorobenzyl)-3-(oxetan-3-yl)piperazine-2,5-dione]
3.9 | COc1ccc(C2C(=O)N(C(C)C)CC(=O)N2Cc2ccc(Cl)cc2)cc1 (stereo not drawn) [Compound 313, 4-(4-chlorobenzyl)-1-isopropyl-3-(4-methoxy-phenyl)piperazine-2,5-dione]
2.0 | O=C1C(C2COC2)N(Cc2ccc(Cl)c(F)c2)C(=O)CN1c1ncc(Cl)cc1F (stereo not drawn) [Compound 648, 4-(4-chloro-3-fluorobenzyl)-1-(5-chloro-3-fluoropyridin-2-yl)-3-(oxetan-3-yl)-piperazine-2,5-dione]
0.7 | Cc1cc(Cl)cnc1N1CC(=O)N(Cc2ccc(Cl)cc2)C2(CN(c3ccc(C#N)cn3)C2)C1=O [Compound 886, 6-(8-(5-chloro-3-methyl-pyridin-2-yl)-5-(4-chloro-benzyl)-6,9-dioxo-2,5,8-triazaspiro[3.5]nonan-2-yl)nicotinonitrile]
0.2 | COC(=O)c1ccccc1N1CC2(C1)C(=O)N(c1ccc(C#N)cc1F)CC(=O)N2Cc1ccc(C(F)(F)F)cc1 [Compound 532, methyl 2-(8-(4-cyano-2-fluorophenyl)-6,9-dioxo-5-(4-(trifluoromethyl)benzyl)-2,5,8-triazaspiro[3.5]nonan-2-yl)benzoate]
9.9 | CC1(CCC(N)=O)C(=O)N(c2ncc(Cl)cc2F)CC(=O)N1Cc1ccc(C(F)(F)F)cc1 (stereo not drawn) [Compound 656, 3-(4-(5-chloro-3-fluoro-pyridin-2-yl)-2-methyl-3,6-dioxo-1-(4-(trifluoro-methyl)benzyl)piperazin-2-yl)propanamide]
0.9 | Cc1ccc(CN2C(=O)CN(c3ncc(Cl)cc3F)C(=O)C23CC2(COC2)C3)cc1 [Compound 816, 10-(5-chloro-3-fluoro-pyridin-2-yl)-7-(4-methyl-benzyl)-2-oxa-7,10-diazadispiro[3.1.56.14]-dodecane-8,11-dione]

Further lines, the compound ahead of its results:

SMILES | CDMF75 IC15 [µM]
CC(C)N1CC(=O)N(Cc2ccc(Cl)cc2)C2(CN(c3ccnc(C#N)c3)C2)C1=O [Compound 27, 4-(5-(4-chlorobenzyl)-8-isopropyl-6,9-dioxo-2,5,8-triazaspiro[3.5]nonan-2-yl)picolinonitrile] | 8.6
N#Cc1ccc(N2CC(=O)N(Cc3ccc(C(F)(F)F)cc3)C3(CN(C=O)C3)C2=O)cc1F [Compound 194, 2-fluoro-4-(2-formyl-6,9-dioxo-5-(4-(trifluoromethyl)benzyl)-2,5,8-triazaspiro[3.5]nonan-8-yl)benzonitrile] | 0.4
CC(C)N1CC(=O)N(Cc2ccc(Cl)c(Cl)c2)C2(CCN(c3ccc(C(N)=O)cn3)C2)C1=O (stereo not drawn) [Compound 91, 6-(6-(3,4-dichlorobenzyl)-9-isopropyl-7,10-dioxo-2,6,9-triazaspiro[4.5]decan-2-yl)nicotinamide] | 1.1
COC(=O)N1CC2(C1)C(=O)N(C(C)C)CC(=O)N2Cc1ccc(Cl)cc1 [Compound 64, methyl 5-(4-chlorobenzyl)-8-isopropyl-6,9-dioxo-2,5,8-triazaspiro[3.5]-nonane-2-carboxylate] | 23.6
CC(C)N1CC(=O)N(Cc2ccc(Cl)cc2)C2(CN(c3ccc(F)cn3)C2)C1=O [Compound 17, 5-(4-chlorobenzyl)-2-(5-fluoropyridin-2-yl)-8-isopropyl-2,5,8-triazaspiro[3.5]nonane-6,9-dione] | 1.7
CC(C)N1CC(=O)N(Cc2ccc(Cl)cc2)C2(CN(c3cncc(F)c3)C2)C1=O [Compound 18, 5-(4-chlorobenzyl)-2-(5-fluoropyridin-3-yl)-8-isopropyl-2,5,8-triazaspiro[3.5]nonane-6,9-dione] | 3.1
CC(C)N1CC(=O)N(Cc2ccc(C(F)(F)F)cc2)C2(CCN(c3cc[nH]c(=O)c3)C2)C1=O (stereo not drawn) [Compound 76, 9-isopropyl-2-(2-oxo-1,2-dihydropyridin-4-yl)-6-(4-(trifluoromethyl)benzyl)-2,6,9-triazaspiro[4.5]decane-7,10-dione] | 2.2
CC(C)NC(=O)N1CCC2(C1)C(=O)N(C(C)C)CC(=O)N2Cc1ccc(C(F)(F)F)cc1 (stereo not drawn) [Compound 117, N,9-diisopropyl-7,10-dioxo-6-(4-(trifluoromethyl)benzyl)-2,6,9-triazaspiro[4.5]decane-2-carboxamide] | 16.6
CC(C)N1CC(=O)N(Cc2ccc(C(F)(F)F)cc2)C2(CCN(C(=O)Nc3cccnc3)C2)C1=O (stereo not drawn) [Compound 113, 9-isopropyl-7,10-dioxo-N-(pyridin-3-yl)-6-(4-(trifluoromethyl)benzyl)-2,6,9-triazaspiro[4.5]-decane-2-carboxamide] | 18.5
CC(C)N1CC(=O)N(Cc2ccc(Cl)cc2)C2(CN(c3ccccn3)C2)C1=O [Compound 6, 5-(4-chlorobenzyl)-8-isopropyl-2-(pyridin-2-yl)-2,5,8-triazaspiro[3.5]-nonane-6,9-dione] | 0.9
O=C1CN([C@H]2CCOC2)C(=O)C2(CCN(c3ccccn3)C2)N1Cc1ccc(Cl)cc1 (stereo partly drawn) [Compound 94, 6-(4-chlorobenzyl)-2-(pyridin-2-yl)-9-((S)-tetra-hydrofuran-3-yl)-2,6,9-triazaspiro[4.5]decane-7,10-dione] | 36.1
Cn1cc(NC(=O)N2CC3(C2)C(=O)N(c2ccc(C#N)c(F)c2)CC(=O)N3Cc2ccc(C(F)(F)F)cc2)cn1 [Compound 200, 8-(4-cyano-3-fluorophenyl)-N-(1-methyl-1H-pyrazol-4-yl)-6,9-dioxo-5-(4-(trifluoromethyl)benzyl)-2,5,8-triazaspiro[3.5]nonane-2-carboxamide] | 0.9
N#Cc1ccc(N2CC(=O)N(Cc3ccc(Cl)cc3)C3(CCN(C(=O)C4CC4)C3)C2=O)c(F)c1 (stereo in doubt) [Compound 213, (S)-4-(6-(4-chlorobenzyl)-2-(cyclopropanecarbonyl)-7,10-dioxo-2,6,9-triazaspiro[4.5]decan-9-yl)-3-fluorobenzonitrile] | 0.4
CC(C)N1CC(=O)N(Cc2ccc(Cl)cc2)C2(CN(c3ccc(C(N)=O)nn3)C2)C1=O [Compound 54, 6-(5-(4-chlorobenzyl)-8-isopropyl-6,9-dioxo-2,5,8-triazaspiro[3.5]-nonan-2-yl)pyridazine-3-carboxamide] | 7.8
